Source: patent US8481586B2, “Pyrrolo[2,3-a] carbazoles and use thereof as PIM kinase inhibitors” (Centre National de la Recherche Scientifique, priority 2008, dated 2013)
Like-named read-outs stand apart in the source and are kept apart here.

Legend:
Format in all cases: biochemical
BRSK2 = BRSK2 (Homo sapiens (Human), UniProt Q8IWQ3); assay: kinase panel residual activity test; settings: compound at 10 μM
From the text: (§1) MKK1, ERK 1, ERK 2, JNK1, JNK2, JNK3, p38a MAPK, p38b MAPK, p38g MAPK, p38s MAPK, ERK8, RSK1, RSK2, PDK1, PKBa, PKBb, SGK1, S6K1, PKA, ROCK2, PRK2, PKCa, PKC zeta, PKD1, MSK1, MNK1, MNK2, MAPKAP-K2, MAPKAP-K3, PRAK, CAMKKa, CAMKKb, CAMK1, SmMLCK, PHK, CHK1, CHK2, GSK3b, CDK2/cyclin A, PLK1, PLK1 (Okadaic acid), Aurora B, Aurora C, AMPK, MARK3, BRSK2, MELK, CK1, CK2, NEK2a, NEK6, NEK7, IKKb, PIM-1, PIM-2, PIM-3, SRPK1, MST2, EF2K, HIPK2, HIPK3, PAK-4, PAK5, PAK6, Src, Lck, CSK.

CK1 = assay: kinase panel residual activity test; settings: compound at 10 μM
From the text: as §1

CK2 = assay: kinase panel residual activity test; settings: compound at 10 μM
From the text: as §1

EF2K = EF2K (Homo sapiens (Human), UniProt O00418); assay: kinase panel residual activity test; settings: compound at 10 μM
From the text: as §1

ERK2 = ERK2 (Homo sapiens (Human), UniProt P28482); assay: kinase panel residual activity test; settings: compound at 10 μM
From the text: as §1

HIPK2 = HIPK2 (Homo sapiens (Human), UniProt Q9H2X6); assay: kinase panel residual activity test; settings: compound at 10 μM
From the text: as §1

JNK3 = JNK3 (Homo sapiens (Human), UniProt P53779); assay: kinase panel residual activity test; settings: compound at 10 μM
From the text: as §1

Lck = Lck (Homo sapiens (Human), UniProt P06239); assay: kinase panel residual activity test; settings: compound at 10 μM
From the text: as §1

MELK = MELK (Homo sapiens (Human), UniProt Q14680); assay: kinase panel residual activity test; settings: compound at 10 μM
From the text: as §1

MKK1 = MKK1 (Homo sapiens (Human), UniProt Q02750); assay: kinase panel residual activity test; settings: compound at 10 μM
From the text: as §1

MNK2 = MNK2 (Homo sapiens (Human), UniProt Q9HBH9); assay: kinase panel residual activity test; settings: compound at 10 μM
From the text: as §1

NEK2a = NEK2a (Homo sapiens (Human), UniProt P51955); assay: kinase panel residual activity test; settings: compound at 10 μM
From the text: as §1

NEK7 = NEK7 (Homo sapiens (Human), UniProt Q8TDX7); assay: kinase panel residual activity test; settings: compound at 10 μM
From the text: as §1

PAK4 = PAK4 (Homo sapiens (Human), UniProt O96013); assay: kinase panel residual activity test; settings: compound at 10 μM
From the text: as §1

PDK1 = PDK1 (Homo sapiens (Human), UniProt O15530); assay: kinase panel residual activity test; settings: compound at 10 μM
From the text: as §1

PKA = PKA (Homo sapiens (Human), UniProt P17612); assay: kinase panel residual activity test; settings: compound at 10 μM
From the text: as §1

PKBa = PKBa (Homo sapiens (Human), UniProt P31749); assay: kinase panel residual activity test; settings: compound at 10 μM
From the text: as §1

PKBb = PKBb (Homo sapiens (Human), UniProt P31751); assay: kinase panel residual activity test; settings: compound at 10 μM
From the text: as §1

PKC zeta = PKC zeta (Homo sapiens (Human), UniProt Q05513); assay: kinase panel residual activity test; settings: compound at 10 μM
From the text: as §1

PKCa = PKCa (Homo sapiens (Human), UniProt P17252); assay: kinase panel residual activity test; settings: compound at 10 μM
From the text: as §1

PRAK = PRAK (Homo sapiens (Human), UniProt Q8IW41); assay: kinase panel residual activity test; settings: compound at 10 μM
From the text: as §1

ROCK2 = ROCK2 (Homo sapiens (Human), UniProt O75116); assay: kinase panel residual activity test; settings: compound at 10 μM
From the text: as §1

RSK1 = RSK1 (Homo sapiens (Human), UniProt Q15418); assay: kinase panel residual activity test; settings: compound at 10 μM
From the text: as §1

RSK2 = RSK2 (Homo sapiens (Human), UniProt P51812); assay: kinase panel residual activity test; settings: compound at 10 μM
From the text: as §1

p38b MAPK = p38b MAPK (Homo sapiens (Human), UniProt Q15759); assay: kinase panel residual activity test; settings: compound at 10 μM
From the text: as §1

p38g MAPK = p38g MAPK (Homo sapiens (Human), UniProt P53778); assay: kinase panel residual activity test; settings: compound at 10 μM
From the text: as §1

PIM-1 = PIM-1 (Homo sapiens (Human), UniProt P11309); assay: inhibition test on kinase PIM-1 (residual activity, IC50)
From the text: as §1
(§2) The results in terms of residual activity of the kinases after being placed in contact with the compounds of Examples 2, 3 and 5, at a concentration of 10 μM (10 μmol/L), are shown in Table 1 below.
(§3) The higher the residual activity of the kinase tested, the lower the inhibitory activity of the test compounds on the tested kinase.
(§4) The compounds according to the invention were then tested on the kinases PIM-1, PIM-2 and PIM-3.
(§5) The results in terms of percentage of residual activity after placing the compounds according to the invention in contact with each of the kinases PIM-1, PIM-2 and PIM-3 are given in Table 2 below.
(§6) The higher the residual activity, the lower the inhibitory activity of the test compounds.
(§7) The mean inhibitory concentrations (IC50) of certain preferred compounds of the invention were determined in the following manner: the IC50 values were measured after performing the inhibition tests on the kinases PIM-1, PIM-2 and PIM-3 at ten different concentrations for each test compound, and the IC50 value was determined from the dose-inhibition curves obtained.

PIM-2 = PIM-2 (Homo sapiens (Human), UniProt Q9P1W9); assay: inhibition test on kinase PIM-2 (residual activity, IC50)
From the text: as §1, §2, §3, §4, §5, §6, §7

PIM-3 = PIM-3 (Homo sapiens (Human), UniProt Q86V86); assay: inhibition test on kinase PIM-3 (residual activity, IC50)
From the text: as §1, §2, §3, §4, §5, §6, §7

[1] = compound at 10 μM, Table 1 panel, read-out: % residual activity PIM-1
[2] = product at 10 μmol/L, Table 2, N.I. = not inhibitory, read-out: Percentage of residual activity PIM-1
[3] = ten concentrations, dose-inhibition curve
[4] = compound at 10 μM, Table 1 panel, read-out: % residual activity PIM-2
[5] = product at 10 μmol/L, Table 2, N.I. = not inhibitory, read-out: Percentage of residual activity PIM-2
[6] = compound at 10 μM, Table 1 panel, read-out: % residual activity PIM-3
[7] = product at 10 μmol/L, Table 2, N.I. = not inhibitory, read-out: Percentage of residual activity PIM-3

BRSK2, sequence (Q8IWQ3 whole entry, species assumed): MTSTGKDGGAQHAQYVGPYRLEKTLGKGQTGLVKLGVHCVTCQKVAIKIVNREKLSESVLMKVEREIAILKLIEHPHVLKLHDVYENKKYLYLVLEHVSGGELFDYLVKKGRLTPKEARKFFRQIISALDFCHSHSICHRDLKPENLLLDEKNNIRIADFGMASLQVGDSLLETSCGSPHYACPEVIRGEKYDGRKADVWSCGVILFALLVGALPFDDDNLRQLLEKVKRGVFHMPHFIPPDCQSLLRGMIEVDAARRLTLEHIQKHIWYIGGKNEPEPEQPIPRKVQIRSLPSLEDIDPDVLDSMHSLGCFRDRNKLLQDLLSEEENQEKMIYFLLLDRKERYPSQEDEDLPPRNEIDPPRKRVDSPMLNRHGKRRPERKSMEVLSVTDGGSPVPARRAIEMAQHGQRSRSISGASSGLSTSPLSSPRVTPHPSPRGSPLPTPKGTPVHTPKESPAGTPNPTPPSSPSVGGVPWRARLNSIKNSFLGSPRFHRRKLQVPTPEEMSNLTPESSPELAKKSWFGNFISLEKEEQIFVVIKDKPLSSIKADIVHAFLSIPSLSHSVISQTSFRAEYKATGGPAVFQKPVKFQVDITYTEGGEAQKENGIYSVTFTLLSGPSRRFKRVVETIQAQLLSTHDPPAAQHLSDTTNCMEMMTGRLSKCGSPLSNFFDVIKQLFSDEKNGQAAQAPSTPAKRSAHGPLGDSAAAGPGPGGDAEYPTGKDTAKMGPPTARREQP
NEK2a, sequence (P51955 whole entry, species assumed): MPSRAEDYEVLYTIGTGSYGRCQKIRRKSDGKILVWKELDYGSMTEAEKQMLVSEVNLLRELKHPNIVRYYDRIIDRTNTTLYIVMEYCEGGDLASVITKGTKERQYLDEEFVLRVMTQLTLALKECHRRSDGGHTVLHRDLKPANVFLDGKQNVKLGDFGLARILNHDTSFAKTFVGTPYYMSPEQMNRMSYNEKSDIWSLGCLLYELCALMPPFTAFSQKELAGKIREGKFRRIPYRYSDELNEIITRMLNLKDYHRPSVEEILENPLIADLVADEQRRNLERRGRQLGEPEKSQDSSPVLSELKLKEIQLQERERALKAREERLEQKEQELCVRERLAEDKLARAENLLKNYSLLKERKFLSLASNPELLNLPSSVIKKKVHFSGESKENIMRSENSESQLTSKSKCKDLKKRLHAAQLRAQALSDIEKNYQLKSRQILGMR
PRAK, sequence (Q8IW41 whole entry, species assumed): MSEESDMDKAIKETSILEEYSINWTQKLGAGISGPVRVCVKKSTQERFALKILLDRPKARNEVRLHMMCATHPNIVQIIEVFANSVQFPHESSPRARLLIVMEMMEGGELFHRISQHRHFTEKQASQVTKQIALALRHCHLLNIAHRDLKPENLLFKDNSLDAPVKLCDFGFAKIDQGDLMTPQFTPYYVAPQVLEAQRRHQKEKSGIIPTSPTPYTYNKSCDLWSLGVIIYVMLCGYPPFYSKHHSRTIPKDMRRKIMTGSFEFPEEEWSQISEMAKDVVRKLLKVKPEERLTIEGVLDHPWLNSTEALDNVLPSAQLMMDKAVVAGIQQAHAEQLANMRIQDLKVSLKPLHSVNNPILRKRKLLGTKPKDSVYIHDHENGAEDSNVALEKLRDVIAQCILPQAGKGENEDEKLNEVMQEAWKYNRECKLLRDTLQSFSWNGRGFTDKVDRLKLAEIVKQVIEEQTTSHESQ
PKBb, sequence (P31751 whole entry): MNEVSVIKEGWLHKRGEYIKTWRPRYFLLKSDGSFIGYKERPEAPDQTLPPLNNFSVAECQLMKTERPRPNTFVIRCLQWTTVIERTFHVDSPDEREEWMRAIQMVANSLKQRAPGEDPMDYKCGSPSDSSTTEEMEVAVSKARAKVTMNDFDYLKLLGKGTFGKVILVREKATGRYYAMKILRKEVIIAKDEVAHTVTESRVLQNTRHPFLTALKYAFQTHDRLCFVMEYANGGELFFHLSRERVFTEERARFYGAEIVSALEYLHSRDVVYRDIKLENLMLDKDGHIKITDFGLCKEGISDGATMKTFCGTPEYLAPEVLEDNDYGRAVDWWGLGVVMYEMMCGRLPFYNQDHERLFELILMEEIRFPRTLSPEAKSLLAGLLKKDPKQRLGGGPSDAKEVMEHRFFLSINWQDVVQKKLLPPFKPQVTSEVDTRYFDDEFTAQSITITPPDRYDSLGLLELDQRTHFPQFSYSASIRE
PAK4, sequence (O96013 whole entry, species assumed): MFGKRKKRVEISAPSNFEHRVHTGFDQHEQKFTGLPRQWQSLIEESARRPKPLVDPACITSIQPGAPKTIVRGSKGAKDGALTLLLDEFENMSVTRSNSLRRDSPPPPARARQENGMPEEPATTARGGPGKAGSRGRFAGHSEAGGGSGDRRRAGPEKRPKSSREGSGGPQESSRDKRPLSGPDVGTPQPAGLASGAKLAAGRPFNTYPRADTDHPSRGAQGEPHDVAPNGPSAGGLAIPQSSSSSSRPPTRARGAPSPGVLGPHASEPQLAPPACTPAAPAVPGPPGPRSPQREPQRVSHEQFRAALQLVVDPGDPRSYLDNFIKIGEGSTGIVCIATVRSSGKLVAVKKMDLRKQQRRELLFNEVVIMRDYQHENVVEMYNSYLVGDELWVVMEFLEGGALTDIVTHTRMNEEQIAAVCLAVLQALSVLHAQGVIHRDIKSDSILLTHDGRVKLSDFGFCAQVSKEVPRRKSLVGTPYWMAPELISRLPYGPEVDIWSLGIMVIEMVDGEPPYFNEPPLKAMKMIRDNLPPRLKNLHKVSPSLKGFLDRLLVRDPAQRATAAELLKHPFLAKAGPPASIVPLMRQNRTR
PIM-1, sequence (P11309 whole entry, species assumed): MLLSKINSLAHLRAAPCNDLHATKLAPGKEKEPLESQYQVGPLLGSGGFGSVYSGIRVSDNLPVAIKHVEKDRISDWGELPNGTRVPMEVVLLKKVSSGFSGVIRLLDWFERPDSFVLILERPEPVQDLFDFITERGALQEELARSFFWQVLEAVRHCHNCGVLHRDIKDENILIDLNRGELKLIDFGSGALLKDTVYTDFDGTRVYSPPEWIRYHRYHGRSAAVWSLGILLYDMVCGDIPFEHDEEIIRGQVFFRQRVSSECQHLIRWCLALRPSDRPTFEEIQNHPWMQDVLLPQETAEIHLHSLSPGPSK
PKC zeta, sequence (Q05513 whole entry): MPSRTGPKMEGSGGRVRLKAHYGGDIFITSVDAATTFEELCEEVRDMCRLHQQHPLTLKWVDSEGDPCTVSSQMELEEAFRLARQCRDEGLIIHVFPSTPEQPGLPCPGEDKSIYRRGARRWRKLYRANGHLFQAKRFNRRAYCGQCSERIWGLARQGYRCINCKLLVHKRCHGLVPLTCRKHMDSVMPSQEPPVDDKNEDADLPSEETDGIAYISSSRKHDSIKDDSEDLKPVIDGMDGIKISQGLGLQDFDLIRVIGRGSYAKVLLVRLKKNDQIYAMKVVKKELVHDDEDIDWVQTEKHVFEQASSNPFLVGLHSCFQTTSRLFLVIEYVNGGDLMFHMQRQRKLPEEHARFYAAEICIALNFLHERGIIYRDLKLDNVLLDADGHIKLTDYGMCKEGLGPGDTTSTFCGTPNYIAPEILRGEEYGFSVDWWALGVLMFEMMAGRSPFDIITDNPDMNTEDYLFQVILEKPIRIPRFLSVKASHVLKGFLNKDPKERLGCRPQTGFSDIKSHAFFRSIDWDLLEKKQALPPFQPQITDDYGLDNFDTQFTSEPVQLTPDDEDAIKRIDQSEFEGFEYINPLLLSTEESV
PDK1, sequence (O15530 whole entry): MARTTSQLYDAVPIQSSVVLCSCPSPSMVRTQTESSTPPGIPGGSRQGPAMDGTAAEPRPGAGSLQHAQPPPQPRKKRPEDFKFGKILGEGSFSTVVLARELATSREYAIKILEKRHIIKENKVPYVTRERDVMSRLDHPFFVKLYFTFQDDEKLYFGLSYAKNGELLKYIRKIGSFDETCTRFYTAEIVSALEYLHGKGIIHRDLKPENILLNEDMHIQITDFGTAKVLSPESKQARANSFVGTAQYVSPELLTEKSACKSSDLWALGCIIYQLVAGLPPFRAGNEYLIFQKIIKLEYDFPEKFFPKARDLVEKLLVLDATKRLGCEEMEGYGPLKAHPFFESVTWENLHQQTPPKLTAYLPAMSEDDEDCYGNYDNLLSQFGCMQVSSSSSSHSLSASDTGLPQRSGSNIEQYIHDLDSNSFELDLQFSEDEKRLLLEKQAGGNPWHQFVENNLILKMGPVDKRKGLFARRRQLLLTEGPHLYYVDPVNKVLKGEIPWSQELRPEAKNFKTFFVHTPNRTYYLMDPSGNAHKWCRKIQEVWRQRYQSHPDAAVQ

Structure (SMILES) | remaining activity at 10 µM (BRSK2) [%] | % residual activity CK1 (CK1) [%] | remaining activity at 10 µM (EF2K) [%] | remaining activity at 10 µM (HIPK2) [%] | remaining activity at 10 µM (JNK3) [%] | remaining activity at 10 µM (MELK) [%] | remaining activity at 10 µM (MNK2) [%] | remaining activity at 10 µM (NEK2a) [%] | remaining activity at 10 µM (NEK7) [%] | remaining activity at 10 µM (PAK4) [%] | remaining activity at 10 µM (PDK1) [%] | remaining activity at 10 µM (PKA) [%] | remaining activity at 10 µM (PKBa) [%] | remaining activity at 10 µM (PKBb) [%] | remaining activity at 10 µM (PKC zeta) [%] | remaining activity at 10 µM (PKCa) [%] | remaining activity at 10 µM (PRAK) [%] | remaining activity at 10 µM (RSK2) [%] | remaining activity at 10 µM (p38b MAPK) [%] | remaining activity at 10 µM (p38g MAPK) [%] | further results
NC(=O)c1c[nH]c2c1ccc1c3ccccc3[nH]c12 [Example 5, 1,10-dihydropyrrolo[2,3-a]carbazole-3-carboxamide] | 32 | 96 | 92 | 42 | 104 | 80 | 57 | 106 | 89 | 16 | 67 | 80 | 97 | 103 | 78 | 80 | 85 | 97 | 92 | 96 | % residual activity CK2 (CK2): 77%; remaining activity at 10 µM (ERK2): 93%; remaining activity at 10 µM (Lck): 78%; remaining activity at 10 µM (MKK1): 80%; remaining activity at 10 µM (ROCK2): 48%; remaining activity at 10 µM (RSK1): 79%; remaining activity at 10 µM (PIM-1; [1]): 9%; remaining activity at 10 µM (PIM-1; [2]): 9%; IC50 (PIM-1; [3]): 780 nM; remaining activity at 10 µM (PIM-2; [4]): 27%; remaining activity at 10 µM (PIM-2; [5]): 27%; remaining activity at 10 µM (PIM-3; [6]): 9%; remaining activity at 10 µM (PIM-3; [7]): 9%; IC50 (PIM-3; [3]): 210 nM
c1ccc2c(c1)[nH]c1c2ccc2cc[nH]c21 [Example 2, 1,10-dihydropyrrolo[2,3-a]carbazole] | 58 | 107 | 101 | 59 | 108 | 93 | 95 | 104 | 96 | 84 | 86 | 95 | 120 | 107 | 91 | 111 | 97 | 129 | 100 | 111 | % residual activity CK2 (CK2): 91%; remaining activity at 10 µM (ERK2): 94%; remaining activity at 10 µM (Lck): 88%; remaining activity at 10 µM (MKK1): 87%; remaining activity at 10 µM (ROCK2): 86%; remaining activity at 10 µM (RSK1): 105%; remaining activity at 10 µM (PIM-1; [1]): 20%; remaining activity at 10 µM (PIM-1; [2]): 20%; remaining activity at 10 µM (PIM-2; [4]): 62%; remaining activity at 10 µM (PIM-2; [5]): 62%; remaining activity at 10 µM (PIM-3; [6]): 10%; remaining activity at 10 µM (PIM-3; [7]): 10%
O=Cc1c[nH]c2c1ccc1c3ccccc3[nH]c12 [Example 3, 1,10-dihydropyrrolo[2,3-a]carbazole-3-carbaldehyde] | 22 |  | 90 | 25 | 113 | 61 | 55 | 88 | 89 | 88 | 76 | 60 | 96 | 98 | 83 | 84 | 72 | 124 | 80 | 74 | 
